Laboratory results published in ChEMBL document CHEMBL3727350, “Agents and methods for treating ischemic and other diseases” (2014).
The source made the active and inactive calls. The calls are words filed in the database; no cut-off is given here.

Experiments:
WERI [1] = assay: Inhibition of cell migration of human WERI cells assessed as reduction in cell ability to migrate away from retina in cultured explants at 1 uM; format: functional, cell-based
[2] = molecular target: Transient receptor potential cation channel subfamily M member 7 (Mus musculus) (UniProt Q923J1); assay: Inhibition of Tet-induced Flag-tagged mouse TRPM7 expressed in HEK293 cells assessed as reduction in channel currents at 2 mM using compound applied extracellularly by whole cell patch clamp assay; format: cell-based
Sequence of Transient receptor potential cation channel subfamily M member 7 (Mus musculus) (Q923J1 whole entry): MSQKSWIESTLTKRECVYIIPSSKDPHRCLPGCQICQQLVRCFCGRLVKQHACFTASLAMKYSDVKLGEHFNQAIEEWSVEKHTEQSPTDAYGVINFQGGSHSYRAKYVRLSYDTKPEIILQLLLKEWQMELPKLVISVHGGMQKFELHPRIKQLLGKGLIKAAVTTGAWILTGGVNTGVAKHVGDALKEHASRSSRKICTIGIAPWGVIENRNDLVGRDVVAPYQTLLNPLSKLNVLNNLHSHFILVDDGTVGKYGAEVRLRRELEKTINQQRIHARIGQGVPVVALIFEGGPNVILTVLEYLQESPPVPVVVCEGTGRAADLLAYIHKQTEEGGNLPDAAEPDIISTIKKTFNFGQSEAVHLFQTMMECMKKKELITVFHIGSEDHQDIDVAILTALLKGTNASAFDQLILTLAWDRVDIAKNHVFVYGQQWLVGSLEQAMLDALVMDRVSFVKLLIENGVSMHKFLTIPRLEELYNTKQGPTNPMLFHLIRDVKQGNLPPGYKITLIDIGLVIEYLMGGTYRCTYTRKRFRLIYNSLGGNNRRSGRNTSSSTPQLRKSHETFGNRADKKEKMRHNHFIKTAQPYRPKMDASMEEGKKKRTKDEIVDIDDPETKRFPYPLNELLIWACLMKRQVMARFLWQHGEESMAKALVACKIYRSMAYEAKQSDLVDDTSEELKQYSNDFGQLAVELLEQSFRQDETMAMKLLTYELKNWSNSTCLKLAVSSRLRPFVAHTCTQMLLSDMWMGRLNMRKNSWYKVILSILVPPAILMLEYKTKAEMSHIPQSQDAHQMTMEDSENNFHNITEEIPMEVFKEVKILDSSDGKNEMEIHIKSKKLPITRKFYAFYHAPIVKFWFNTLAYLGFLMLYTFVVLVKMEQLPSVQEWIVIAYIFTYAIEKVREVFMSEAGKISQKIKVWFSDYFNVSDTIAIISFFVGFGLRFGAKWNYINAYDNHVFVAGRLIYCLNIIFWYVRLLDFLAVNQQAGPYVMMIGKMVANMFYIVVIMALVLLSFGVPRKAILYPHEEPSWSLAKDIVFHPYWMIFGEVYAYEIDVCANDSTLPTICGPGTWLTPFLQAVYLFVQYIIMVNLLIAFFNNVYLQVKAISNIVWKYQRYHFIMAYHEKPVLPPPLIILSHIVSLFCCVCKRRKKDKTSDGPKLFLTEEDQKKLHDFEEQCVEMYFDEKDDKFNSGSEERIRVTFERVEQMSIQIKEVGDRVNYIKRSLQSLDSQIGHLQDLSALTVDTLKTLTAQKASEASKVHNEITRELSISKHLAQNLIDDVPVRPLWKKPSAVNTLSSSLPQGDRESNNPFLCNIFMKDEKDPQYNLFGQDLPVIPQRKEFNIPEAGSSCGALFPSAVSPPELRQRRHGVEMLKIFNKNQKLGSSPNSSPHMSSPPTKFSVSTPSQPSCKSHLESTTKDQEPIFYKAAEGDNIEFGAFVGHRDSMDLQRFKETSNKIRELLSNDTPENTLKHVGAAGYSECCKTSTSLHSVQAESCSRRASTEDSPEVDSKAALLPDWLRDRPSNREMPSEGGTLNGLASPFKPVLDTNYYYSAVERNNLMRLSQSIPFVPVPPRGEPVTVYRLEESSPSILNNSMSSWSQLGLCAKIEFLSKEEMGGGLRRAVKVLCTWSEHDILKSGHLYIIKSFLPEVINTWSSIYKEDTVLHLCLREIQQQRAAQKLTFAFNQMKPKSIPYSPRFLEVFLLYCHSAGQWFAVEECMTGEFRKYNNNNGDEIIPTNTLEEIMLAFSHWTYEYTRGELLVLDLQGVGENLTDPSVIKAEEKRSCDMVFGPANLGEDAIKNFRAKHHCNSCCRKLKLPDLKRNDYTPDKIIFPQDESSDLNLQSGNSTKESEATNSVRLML

Y79 [3] = assay: Inhibition of cell proliferation of human Y79 cells at 1 uM to 7.5 uM by MTT assay; format: functional, cell-based
[4] = Toxicity in mouse assessed as maximum tolerated dose; format: organism-based; conditions: in vivo
RXF 393 = assay: Antitumor activity against human RXF393 cells implanted in mouse assessed as inhibition of tumor growth at 20 mg/kg, iv qd; format: functional, organism-based
NCI-H292 = assay: Inhibition of cell proliferation of human NCI-H292 cells at 10 uM incubated for 48 to 96 hrs; format: functional
[5] = Inhibition of cell proliferation of mouse NIH/3T3 cells at 1.25 to 10 uM incubated for 72 hrs by propidium iodide staining assay; format: cell-based; conditions: nih3t3, 72 h
MDA-MB-231 [6] = assay: Inhibition of cell proliferation of human MDA-MB-231 cells at 1.25 to 10 uM incubated for 72 hrs by SRB assay; format: functional, cell-based
Y79 [7] = assay: Inhibition of cell proliferation of human Y79 cells at 10 uM incubated for 48 to 96 hrs; format: functional
Y79 [8] = assay: Reduction in cell viability in human Y79 cells on rat retinal explants at 5 uM; format: functional, cell-based
U2OS = assay: Inhibition of cell proliferation of human U2OS cells at 10 uM incubated for 48 to 96 hrs; format: functional
[9] = molecular target: Transient receptor potential cation channel subfamily M member 7 (Mus musculus) (UniProt Q923J1); assay: Inhibition of TRPM7 in mouse mouse primary cortical neurons exposed to 2 hrs oxygen glucose deprivation condition assessed as reduction in TRPM7-mediated anoxic cell death at 0.625 to 5 uM pre-incubated for 24 hrs before OGD measured after 20 hrs by propidium iodide uptake assay; format: cell-based; conditions: Cerebral cortex neuron
[10] = Inhibition of cell proliferation of human DMS456 cells at 10 uM incubated for 48 to 96 hrs; format: functional
HeLa [11] = assay: Inhibition of cell proliferation of human HeLa cells at 10 uM incubated for 48 to 96 hrs; format: functional
[12] = Inhibition of cell proliferation of human WERI cells at 10 uM incubated for 48 to 96 hrs; format: functional
[13] = molecular target: Transient receptor potential cation channel subfamily M member 7 (Mus musculus) (UniProt Q923J1); assay: Inhibition of Tet-induced Flag-tagged mouse TRPM7 expressed in HEK293 cells assessed as reduction in channel currents at 2 mM using compound applied intracellularly by whole cell patch clamp assay; format: cell-based
SW13 [14] = assay: Inhibition of cell proliferation of human SW13 cells at 1.25 to 10 uM incubated for 48 hrs by BrdU incorporation assay; format: functional, cell-based
[15] = Inhibition of cell proliferation of mouse B16F10 cells at 10 uM incubated for 48 to 96 hrs; format: functional; conditions: B16-F10
A-375 = assay: Inhibition of cell proliferation of human A375 cells at 10 uM incubated for 48 to 96 hrs; format: functional
[16] = Inhibition of cell proliferation of human HCT116 cells at 10 uM incubated for 48 to 96 hrs; format: functional; conditions: HCT-116
[17] = Cytotoxic activity against mouse primary cortical neurons assessed as reduction in cell viability at 1 to 7.5 uM incubated for 48 to 72 hrs by MTT assay; format: cell-based; conditions: cerebral cortex neuron
B16-F10 [18] = assay: Antitumor activity against mouse B16F10 cells implanted in mouse assessed as inhibition of tumor growth at 20 mg/kg, iv qd; format: functional, organism-based
[19] = molecular target: Transient receptor potential cation channel subfamily M member 7 (Mus musculus) (UniProt Q923J1); assay: Inhibition of TRPM7 in mouse primary neuronal cells exposed to oxygen glucose deprivation condition for 1 to 3 hrs assessed as reduction in TRPM7-mediated anoxic cell death dosed after oxygen glucose deprivation condition by propidium iodide uptake assay; conditions: Primary neuron
Y79 [20] = assay: Inhibition of cell migration of human Y79 cells assessed as reduction in cell ability to migrate away from retina in cultured explants at 5 uM; format: functional, cell-based
B16-F10 [21] = assay: Inhibition of cell proliferation of mouse B16F10 cells at 1.25 to 10 uM incubated for 72 hrs by SRB assay; format: functional, cell-based
[22] = molecular target: Transient receptor potential cation channel subfamily M member 7 (Mus musculus) (UniProt Q923J1); assay: Inhibition of Tet-induced Flag-tagged mouse TRPM7 expressed in HEK293 cells assessed as reduction in channel currents at 0.3 to 30 uM by whole cell patch clamp assay; format: cell-based
[23] = molecular target: Transient receptor potential cation channel subfamily M member 7 (Mus musculus) (UniProt Q923J1); assay: Inhibition of Tet-induced Flag-tagged mouse TRPM7 expressed in HEK293 cells assessed as inhibition of channel-mediated cell death in presence of Mg2+ incubated for 24 to 48 hrs by propidium iodide uptake assay; format: cell-based; parameters: concentration or dose not given beside the values
MCF7 = assay: Inhibition of cell proliferation of human MCF7 cells at 10 uM incubated for 48 to 96 hrs; format: functional
[24] = molecular target: Transient receptor potential cation channel subfamily M member 7 (Mus musculus) (UniProt Q923J1); assay: Inhibition of TRPM7 in mouse mouse primary cortical neurons exposed to 2 hrs oxygen glucose deprivation condition assessed as reduction in TRPM7-mediated anoxic cell death measured after 20 hrs by propidium iodide uptake assay; format: cell-based; conditions: Cerebral cortex neuron
MDA-MB-231 [25] = assay: Inhibition of cell proliferation of human MDA-MB-231 cells at 10 uM incubated for 48 to 96 hrs; format: functional
[26] = Inhibition of cell proliferation of mouse B16-F1 cells at 10 uM incubated for 48 to 96 hrs; format: functional
[27] = molecular target: Transient receptor potential cation channel subfamily M member 7 (Rattus norvegicus) (UniProt Q925B3); assay: Inhibition of TRPM7 in rat H9C2 cells exposed to oxygen glucose deprivation condition for 1 to 6 hrs assessed as reduction in TRPM7-mediated anoxic cell death in presence of 1 uM nifedipine by propidium iodide uptake assay; format: cell-based
Sequence of Transient receptor potential cation channel subfamily M member 7 (Rattus norvegicus) (Q925B3 whole entry): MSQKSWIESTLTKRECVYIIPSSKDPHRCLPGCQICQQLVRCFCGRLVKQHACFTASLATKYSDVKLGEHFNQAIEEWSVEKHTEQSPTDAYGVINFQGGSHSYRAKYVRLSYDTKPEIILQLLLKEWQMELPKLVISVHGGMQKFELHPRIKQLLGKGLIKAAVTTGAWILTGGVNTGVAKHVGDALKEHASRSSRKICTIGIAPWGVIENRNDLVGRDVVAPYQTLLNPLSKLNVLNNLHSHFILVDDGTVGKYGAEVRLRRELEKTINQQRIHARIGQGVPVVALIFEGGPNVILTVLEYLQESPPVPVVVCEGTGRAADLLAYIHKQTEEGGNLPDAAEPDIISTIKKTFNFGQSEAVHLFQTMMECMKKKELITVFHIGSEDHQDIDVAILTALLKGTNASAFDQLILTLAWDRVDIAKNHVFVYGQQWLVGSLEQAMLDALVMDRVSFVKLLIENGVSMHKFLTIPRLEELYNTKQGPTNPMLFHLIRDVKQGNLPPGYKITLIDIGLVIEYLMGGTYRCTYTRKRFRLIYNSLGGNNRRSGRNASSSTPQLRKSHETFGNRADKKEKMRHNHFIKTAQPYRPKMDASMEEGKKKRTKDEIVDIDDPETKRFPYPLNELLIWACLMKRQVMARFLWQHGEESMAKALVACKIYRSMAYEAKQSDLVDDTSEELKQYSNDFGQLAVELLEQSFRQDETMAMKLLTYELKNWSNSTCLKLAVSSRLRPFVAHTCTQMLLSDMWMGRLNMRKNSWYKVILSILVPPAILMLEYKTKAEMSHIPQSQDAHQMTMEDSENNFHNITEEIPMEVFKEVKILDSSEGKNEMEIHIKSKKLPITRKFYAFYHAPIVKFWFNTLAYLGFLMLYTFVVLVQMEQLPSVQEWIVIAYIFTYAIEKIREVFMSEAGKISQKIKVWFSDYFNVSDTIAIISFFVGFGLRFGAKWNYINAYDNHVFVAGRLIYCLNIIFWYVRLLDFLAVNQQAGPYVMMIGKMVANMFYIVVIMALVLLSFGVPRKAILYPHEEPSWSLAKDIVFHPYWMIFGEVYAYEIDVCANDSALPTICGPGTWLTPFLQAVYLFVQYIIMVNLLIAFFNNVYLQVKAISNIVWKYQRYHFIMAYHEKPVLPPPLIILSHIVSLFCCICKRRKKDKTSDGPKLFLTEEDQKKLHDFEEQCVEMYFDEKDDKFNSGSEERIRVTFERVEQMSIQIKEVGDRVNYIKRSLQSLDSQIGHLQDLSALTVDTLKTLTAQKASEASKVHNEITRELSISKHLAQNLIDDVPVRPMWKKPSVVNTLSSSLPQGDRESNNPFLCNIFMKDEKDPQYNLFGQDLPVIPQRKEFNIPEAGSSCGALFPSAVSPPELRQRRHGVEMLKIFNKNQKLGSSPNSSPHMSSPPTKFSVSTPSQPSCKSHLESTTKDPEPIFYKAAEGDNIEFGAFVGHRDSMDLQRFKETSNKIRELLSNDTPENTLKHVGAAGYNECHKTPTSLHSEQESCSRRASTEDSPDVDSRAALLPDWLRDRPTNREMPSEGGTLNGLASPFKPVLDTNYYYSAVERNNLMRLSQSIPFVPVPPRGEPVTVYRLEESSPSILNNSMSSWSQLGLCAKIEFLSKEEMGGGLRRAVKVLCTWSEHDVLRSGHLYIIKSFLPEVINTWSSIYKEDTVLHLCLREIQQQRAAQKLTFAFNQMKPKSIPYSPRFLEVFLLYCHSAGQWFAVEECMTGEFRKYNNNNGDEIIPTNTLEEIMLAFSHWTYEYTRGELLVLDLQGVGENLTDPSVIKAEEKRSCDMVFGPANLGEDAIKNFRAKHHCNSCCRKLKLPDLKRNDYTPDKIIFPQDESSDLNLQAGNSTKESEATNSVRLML

SW13 [28] = assay: Inhibition of cell proliferation of human SW13 cells at 10 uM incubated for 48 to 96 hrs; format: functional
SW13 [29] = assay: Inhibition of cell proliferation of human SW13 cells at 1.25 to 10 uM incubated for 72 hrs by SRB assay; format: functional, cell-based
WERI [30] = assay: Inhibition of cell proliferation of human WERI cells at 0.25 uM to 10 uM by MTT assay; format: functional, cell-based
[31] = Inhibition of cell proliferation of human […] cells at 10 uM incubated for 48 to 96 hrs; format: functional; conditions: RXF 393
[32] = molecular target: Transient receptor potential cation channel subfamily M member 7 (Rattus norvegicus) (UniProt Q925B3); assay: Inhibition of TRPM7 in rat H9C2 cells assessed as reduction in channel currents at 0.3 to 30 uM by whole cell patch clamp assay; format: cell-based
[33] = Inhibition of cell proliferation of human DMS53 cells at 10 uM incubated for 48 to 96 hrs; format: functional; conditions: DMS-53
B16-F1 = assay: Inhibition of cell proliferation of mouse B16-F1 cells at 1.25 to 10 uM incubated for 72 hrs by SRB assay; format: functional, cell-based
[34] = molecular target: Transient receptor potential cation channel subfamily M member 7 (Mus musculus) (UniProt Q923J1); assay: Inhibition of TRPM7 in mouse primary neuronal cells exposed to oxygen glucose deprivation condition for 1 to 3 hrs assessed as reduction in TRPM7-mediated anoxic cell death dosed before oxygen glucose deprivation condition by propidium iodide uptake assay; conditions: Primary neuron
HeLa [35] = assay: Inhibition of cell proliferation of human HeLa cells at 1.25 to 10 uM incubated for 48 hrs by BrdU incorporation assay; format: functional, cell-based

SMILES: COc1cc2c(cc1OC)C(c1sc3ccccc3c1Cl)=NCC2
- inhibition (WERI [1]): Active
- inhibition [2]: Active
- inhibition (Y79 [3]): Active
- MTD [4]: < 20 mg/kg
- TGI (RXF 393): Active
- inhibition at 10 µM (NCI-H292): > 20%
- Activity [5]: Non-toxic
- inhibition (MDA-MB-231 [6]): Active
- inhibition at 10 µM (Y79 [7]): > 20%
- inhibition (Y79 [8]): Active
- inhibition at 10 µM (U2OS): > 20%
- inhibition [9]: Active
- inhibition at 10 µM [10]: > 20%
- inhibition at 10 µM (HeLa [11]): > 20%
- inhibition at 10 µM [12]: > 20%
- inhibition [13]: inactive
- inhibition (SW13 [14]): Active
- inhibition at 10 µM [15]: > 20%
- inhibition at 10 µM (A-375): > 20%
- inhibition at 10 µM [16]: > 20%
- Activity [17]: Non-toxic
- TGI (B16-F10 [18]): Active
- inhibition [19]: Active
- inhibition (Y79 [20]): Active
- inhibition (B16-F10 [21]): Active
- inhibition [22]: Active
- inhibition [23]: Active
- inhibition at 10 µM (MCF7): > 20%
- inhibition [24]: Active
- inhibition at 10 µM (MDA-MB-231 [25]): > 20%
- inhibition at 10 µM [26]: > 20%
- inhibition [27]: Active
- inhibition at 10 µM (SW13 [28]): > 20%
- inhibition (SW13 [29]): Active
- inhibition (WERI [30]): Active
- inhibition at 10 µM [31]: > 20%
- inhibition [32]: Active
- inhibition at 10 µM [33]: > 20%
- inhibition (B16-F1): Active
- inhibition [34]: Active
- inhibition (HeLa [35]): Active
